According to ChEMBL document CHEMBL1145159 (J Med Chem, 2005):
Several values for one entry are separate records, joined by “and”; a condition that tells them apart may be missing. Identical values can stand only once. Peptide text beside a SMILES is read from it.

What was measured:
[1] = target: T1, Neuronal acetylcholine receptor; alpha2/beta4 (Homo sapiens, UniProt P30926+Q15822); test: Effective concentration against Nicotinic acetylcholine receptor alpha2-beta4; type: protein-complex assay
T1 sequence (P30926 whole entry): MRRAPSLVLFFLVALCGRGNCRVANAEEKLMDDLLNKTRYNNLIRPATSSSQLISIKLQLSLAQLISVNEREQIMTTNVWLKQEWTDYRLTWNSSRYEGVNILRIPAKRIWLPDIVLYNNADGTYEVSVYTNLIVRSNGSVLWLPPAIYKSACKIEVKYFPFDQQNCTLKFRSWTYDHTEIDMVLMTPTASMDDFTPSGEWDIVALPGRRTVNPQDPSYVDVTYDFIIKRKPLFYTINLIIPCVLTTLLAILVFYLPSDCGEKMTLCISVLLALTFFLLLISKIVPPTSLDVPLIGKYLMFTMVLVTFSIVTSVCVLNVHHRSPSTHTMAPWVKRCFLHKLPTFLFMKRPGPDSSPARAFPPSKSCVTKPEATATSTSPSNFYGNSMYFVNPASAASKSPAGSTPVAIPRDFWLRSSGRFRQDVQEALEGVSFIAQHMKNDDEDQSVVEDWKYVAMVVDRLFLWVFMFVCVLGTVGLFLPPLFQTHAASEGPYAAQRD
T1 sequence (Q15822 whole entry): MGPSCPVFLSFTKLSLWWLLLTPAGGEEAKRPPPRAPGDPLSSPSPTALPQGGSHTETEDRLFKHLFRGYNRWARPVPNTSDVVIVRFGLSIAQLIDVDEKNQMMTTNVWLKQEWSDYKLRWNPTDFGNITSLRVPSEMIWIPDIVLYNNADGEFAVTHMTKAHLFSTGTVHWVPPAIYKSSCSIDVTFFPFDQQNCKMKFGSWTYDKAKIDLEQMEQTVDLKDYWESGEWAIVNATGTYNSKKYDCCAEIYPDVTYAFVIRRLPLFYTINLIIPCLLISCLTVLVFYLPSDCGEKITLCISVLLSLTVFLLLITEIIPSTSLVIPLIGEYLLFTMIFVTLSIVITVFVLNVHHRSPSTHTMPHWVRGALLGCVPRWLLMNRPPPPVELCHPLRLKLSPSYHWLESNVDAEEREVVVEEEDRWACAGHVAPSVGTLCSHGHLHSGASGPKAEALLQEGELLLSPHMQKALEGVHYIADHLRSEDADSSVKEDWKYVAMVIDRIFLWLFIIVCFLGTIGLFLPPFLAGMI

[2] = target: T2, Neuronal acetylcholine receptor; alpha4/beta2 (Homo sapiens, UniProt P17787+P43681); test: Effective concentration against Nicotinic acetylcholine receptor alpha4-beta2; type: protein-complex assay
T2 sequence (P17787 whole entry): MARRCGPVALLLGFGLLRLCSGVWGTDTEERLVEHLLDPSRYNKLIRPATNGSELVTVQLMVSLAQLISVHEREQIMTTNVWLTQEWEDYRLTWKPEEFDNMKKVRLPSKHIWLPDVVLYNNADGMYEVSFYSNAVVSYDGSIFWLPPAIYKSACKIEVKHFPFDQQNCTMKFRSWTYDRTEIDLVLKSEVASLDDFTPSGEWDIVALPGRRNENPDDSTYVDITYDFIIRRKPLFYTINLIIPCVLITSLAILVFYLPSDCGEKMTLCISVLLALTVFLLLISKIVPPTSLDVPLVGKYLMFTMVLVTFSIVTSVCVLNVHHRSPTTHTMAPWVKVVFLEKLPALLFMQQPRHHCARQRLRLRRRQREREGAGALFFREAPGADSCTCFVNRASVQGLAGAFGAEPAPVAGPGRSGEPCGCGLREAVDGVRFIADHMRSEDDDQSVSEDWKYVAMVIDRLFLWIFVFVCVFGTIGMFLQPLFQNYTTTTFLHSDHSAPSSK
T2 sequence (P43681 whole entry): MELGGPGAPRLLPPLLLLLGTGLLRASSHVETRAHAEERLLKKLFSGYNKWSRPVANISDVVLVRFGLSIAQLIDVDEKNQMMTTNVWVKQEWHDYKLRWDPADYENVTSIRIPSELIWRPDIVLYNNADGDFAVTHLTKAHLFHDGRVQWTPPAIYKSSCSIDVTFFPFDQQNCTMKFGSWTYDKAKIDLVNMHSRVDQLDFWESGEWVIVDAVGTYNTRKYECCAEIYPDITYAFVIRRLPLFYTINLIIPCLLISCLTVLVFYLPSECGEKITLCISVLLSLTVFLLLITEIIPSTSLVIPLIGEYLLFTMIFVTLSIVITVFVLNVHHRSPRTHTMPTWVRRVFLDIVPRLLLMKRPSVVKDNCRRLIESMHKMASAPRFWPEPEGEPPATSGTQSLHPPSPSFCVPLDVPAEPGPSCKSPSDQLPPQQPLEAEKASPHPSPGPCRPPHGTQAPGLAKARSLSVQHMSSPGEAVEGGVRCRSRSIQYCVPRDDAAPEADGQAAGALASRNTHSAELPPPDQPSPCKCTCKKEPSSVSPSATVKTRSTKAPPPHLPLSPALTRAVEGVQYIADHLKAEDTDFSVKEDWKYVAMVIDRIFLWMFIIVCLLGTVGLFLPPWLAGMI

[3] = target: Neuronal acetylcholine receptor subunit alpha-7 (Rattus norvegicus) (UniProt Q05941); test: Maximal response against Nicotinic acetylcholine receptor alpha 7
Sequence of Neuronal acetylcholine receptor subunit alpha-7 (Rattus norvegicus) (Q05941 whole entry): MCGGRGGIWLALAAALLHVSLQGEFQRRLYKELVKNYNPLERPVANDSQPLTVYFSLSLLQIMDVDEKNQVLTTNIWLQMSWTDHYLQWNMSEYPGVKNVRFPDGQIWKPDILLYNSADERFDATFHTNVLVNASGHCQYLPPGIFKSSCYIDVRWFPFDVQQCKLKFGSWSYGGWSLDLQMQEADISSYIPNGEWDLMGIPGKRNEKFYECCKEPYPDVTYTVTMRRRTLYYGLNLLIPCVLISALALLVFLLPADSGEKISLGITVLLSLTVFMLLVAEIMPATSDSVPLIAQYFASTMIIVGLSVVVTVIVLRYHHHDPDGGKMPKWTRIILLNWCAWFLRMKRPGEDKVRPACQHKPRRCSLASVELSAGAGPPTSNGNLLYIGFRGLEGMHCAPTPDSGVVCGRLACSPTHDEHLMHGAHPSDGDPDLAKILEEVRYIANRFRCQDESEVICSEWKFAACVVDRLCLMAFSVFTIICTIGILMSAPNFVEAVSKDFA

[4] = target: T3, Neuronal acetylcholine receptor; alpha3/beta2 (Homo sapiens, UniProt P17787+P32297); test: Effective concentration against Nicotinic acetylcholine receptor alpha3-beta2; type: protein-complex assay
T3 sequence (P17787 whole entry): as the sequence (P17787 whole entry) above
T3 sequence (P32297 whole entry): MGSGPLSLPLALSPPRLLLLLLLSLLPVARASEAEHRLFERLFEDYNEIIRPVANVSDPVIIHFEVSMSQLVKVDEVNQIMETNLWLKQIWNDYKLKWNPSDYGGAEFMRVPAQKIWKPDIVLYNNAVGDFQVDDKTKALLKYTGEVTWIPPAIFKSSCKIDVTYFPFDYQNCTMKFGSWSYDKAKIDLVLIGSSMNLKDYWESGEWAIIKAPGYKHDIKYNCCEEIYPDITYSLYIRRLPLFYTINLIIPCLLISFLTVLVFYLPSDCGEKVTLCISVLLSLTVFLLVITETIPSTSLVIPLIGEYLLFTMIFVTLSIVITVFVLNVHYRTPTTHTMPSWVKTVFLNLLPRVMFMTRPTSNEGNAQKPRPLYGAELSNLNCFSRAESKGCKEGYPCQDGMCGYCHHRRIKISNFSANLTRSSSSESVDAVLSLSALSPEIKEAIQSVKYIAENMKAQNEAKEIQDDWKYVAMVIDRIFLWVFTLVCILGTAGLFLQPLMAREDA

[5] = target: T4, Neuronal acetylcholine receptor; alpha3/beta4 (Homo sapiens, UniProt P30926+P32297); test: Effective concentration against Nicotinic acetylcholine receptor alpha3-beta4; type: protein-complex assay
T4 sequence (P30926 whole entry): as the sequence (P30926 whole entry) above
T4 sequence (P32297 whole entry): as the sequence (P32297 whole entry) above

[6] = target: T5, Neuronal acetylcholine receptor; alpha4/beta4 (Homo sapiens, UniProt P30926+P43681); test: Effective concentration against Nicotinic acetylcholine receptor alpha4-beta4; type: protein-complex assay
T5 sequence (P30926 whole entry): as the sequence (P30926 whole entry) above
T5 sequence (P43681 whole entry): as the sequence (P43681 whole entry) above

[7] = target: T6, Neuronal acetylcholine receptor subunit alpha-7 (Homo sapiens, UniProt P36544); test: Effective concentration against Nicotinic acetylcholine receptor alpha 7
T6 sequence (P36544 whole entry): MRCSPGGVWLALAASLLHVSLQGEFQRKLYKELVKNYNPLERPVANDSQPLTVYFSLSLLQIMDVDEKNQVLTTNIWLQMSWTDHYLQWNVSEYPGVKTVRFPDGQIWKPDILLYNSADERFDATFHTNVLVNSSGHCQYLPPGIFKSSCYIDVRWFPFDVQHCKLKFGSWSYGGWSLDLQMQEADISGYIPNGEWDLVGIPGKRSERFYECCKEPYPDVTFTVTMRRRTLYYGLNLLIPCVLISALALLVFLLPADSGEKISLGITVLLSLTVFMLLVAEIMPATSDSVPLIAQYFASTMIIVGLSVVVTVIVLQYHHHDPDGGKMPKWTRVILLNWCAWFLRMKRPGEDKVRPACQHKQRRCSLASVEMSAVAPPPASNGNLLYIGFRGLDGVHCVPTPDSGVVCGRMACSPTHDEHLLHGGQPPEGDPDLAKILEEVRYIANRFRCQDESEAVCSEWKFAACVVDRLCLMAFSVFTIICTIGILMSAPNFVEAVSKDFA

[8] = target: T5, Neuronal acetylcholine receptor; alpha4/beta4; test: Maximal response against Nicotinic acetylcholine receptor alpha4-beta4; type: protein-complex assay
[9] = target: T1, Neuronal acetylcholine receptor; alpha2/beta4; test: Maximal response against Nicotinic acetylcholine receptor alpha2-beta4; type: protein-complex assay
[10] = target: T4, Neuronal acetylcholine receptor; alpha3/beta4; test: Maximal response against Nicotinic acetylcholine receptor alpha3-beta4; type: protein-complex assay
[11] = target: T2, Neuronal acetylcholine receptor; alpha4/beta2; test: Maximal response against Nicotinic acetylcholine receptor alpha4-beta2; type: protein-complex assay
[12] = target: T6, Neuronal acetylcholine receptor subunit alpha-7; test: Effective concentration against Nicotinic acetylcholine receptor alpha 7 expressed in xenopus oocytes; type: cell-based, Xenopus laevis, Oocyte
[13] = Effective concentration against Nicotinic acetylcholine receptor alpha4-beta4 expressed in xenopus oocytes; type: cell-based; conditions: oocyte
[14] = target: T4, Neuronal acetylcholine receptor; alpha3/beta4; test: Maximal response against Nicotinic acetylcholine receptor alpha3-beta4 in [Ca2+] permeability and [Ca2+] modulation; type: protein-complex assay
[15] = target: T3, Neuronal acetylcholine receptor; alpha3/beta2; test: Effective concentration against Nicotinic acetylcholine receptor alpha3-beta2 expressed in xenopus oocytes; type: cell-based, Oocyte
[16] = target: T3, Neuronal acetylcholine receptor; alpha3/beta2; test: Maximal response against Nicotinic acetylcholine receptor alpha3-beta2; type: protein-complex assay
[17] = Effective concentration against Nicotinic acetylcholine receptor alpha4-beta2 expressed in xenopus oocytes; type: cell-based; conditions: oocyte
[18] = target: T3, Neuronal acetylcholine receptor; alpha3/beta2; test: Maximal response against Nicotinic acetylcholine receptor alpha3-beta2 in [Ca2+] permeability and [Ca2+] modulation; type: functional
[19] = Effective concentration against Nicotinic acetylcholine receptor alpha2-beta4 expressed in xenopus oocytes; type: cell-based; conditions: oocyte
[20] = Effective concentration against Nicotinic acetylcholine receptor alpha3-beta4 expressed in xenopus oocytes; type: cell-based; conditions: oocyte
[21] = target: Neuronal acetylcholine receptor; alpha4/beta2 (Rattus norvegicus) (UniProt P09483+P12390); test: Maximal response against rat neural Nicotinic acetylcholine receptor alpha4-beta2; type: protein-complex assay
[22] = target: Neuronal acetylcholine receptor; alpha3/beta2 (Rattus norvegicus) (UniProt P04757+P12390); test: Maximal response against rat neural Nicotinic acetylcholine receptor alpha3-beta2; type: protein-complex assay
[23] = target: Neuronal acetylcholine receptor subunit alpha-7 (Rattus norvegicus) (UniProt Q05941); test: Maximal response against rat neural Nicotinic acetylcholine receptor alpha 7
[24] = target: Neuronal acetylcholine receptor; alpha3/beta4 (Rattus norvegicus) (UniProt P04757+P12392); test: Maximal response against rat neural Nicotinic acetylcholine receptor alpha3-beta4; type: protein-complex assay
[25] = target: T2, Neuronal acetylcholine receptor; alpha4/beta2; test: Ki or IC50 concentration against Nicotinic acetylcholine receptor alpha4-beta2 expressed in xenopus oocytes; type: cell-based; conditions: Oocyte
[26] = target: T5, Neuronal acetylcholine receptor; alpha4/beta4; test: Ki or IC50 concentration against Nicotinic acetylcholine receptor alpha4-beta4 expressed in xenopus oocytes; type: cell-based; conditions: Oocyte
[27] = Inhibitory concentration against Nicotinic acetylcholine receptor alpha3-beta4 expressed in xenopus oocytes; type: cell-based; conditions: oocyte
[28] = Inhibitory concentration against Nicotinic acetylcholine receptor alpha2-beta4 expressed in xenopus oocytes; type: cell-based; conditions: oocyte
[29] = target: T2, Neuronal acetylcholine receptor; alpha4/beta2; test: Inhibitory concentration against Nicotinic acetylcholine receptor alpha4-beta2; type: protein-complex assay
[30] = target: T6, Neuronal acetylcholine receptor subunit alpha-7; test: Inhibitory concentration against Nicotinic acetylcholine receptor alpha-7 expressed in xenopus oocytes; type: cell-based; conditions: xenopus oocyte
[31] = target: T6, Neuronal acetylcholine receptor subunit alpha-7; test: Inhibitory concentration against Nicotinic acetylcholine receptor alpha 7
[32] = target: T4, Neuronal acetylcholine receptor; alpha3/beta4; test: Inhibitory concentration against Nicotinic acetylcholine receptor alpha3-beta4; type: protein-complex assay
[33] = target: T4, Neuronal acetylcholine receptor; alpha3/beta4; test: Inhibitory concentration against Nicotinic acetylcholine receptor alpha3-beta4; Range is 0.7-1 nM; type: protein-complex assay
[34] = target: Neuronal acetylcholine receptor; alpha3/alpha6/beta2/beta3 (Homo sapiens, UniProt P17787+P32297+Q05901+Q15825); test: Inhibitory concentration against Nicotinic acetylcholine receptor alpha-6-alpha-3-beta-2-beta-3; Range is 0.7-1 nM; type: protein-complex assay
[35] = target: T1, Neuronal acetylcholine receptor; alpha2/beta4; test: Inhibitory concentration against Nicotinic acetylcholine receptor alpha2-beta4; Range is 0.3-1.5 nM; type: protein-complex assay
[36] = target: T6, Neuronal acetylcholine receptor subunit alpha-7; test: Inhibitory concentration against Nicotinic acetylcholine receptor alpha7; Range is 0.3-1.5 nM
[37] = target: T5, Neuronal acetylcholine receptor; alpha4/beta4; test: Inhibitory concentration against Nicotinic acetylcholine receptor alpha4-beta4; Range is 0.3-1.5 nM; type: protein-complex assay
[38] = target: Neuronal acetylcholine receptor; alpha2/beta2 (Homo sapiens, UniProt P17787+Q15822); test: Inhibitory concentration against Nicotinic acetylcholine receptor alpha2-beta2; Range is 0.3-1.5 nM; type: protein-complex assay
Sequence of Neuronal acetylcholine receptor; alpha2/beta2 (P17787 whole entry): as the sequence (P17787 whole entry) above
Sequence of Neuronal acetylcholine receptor; alpha2/beta2 (Q15822 whole entry): as the sequence (Q15822 whole entry) above

[39] = target: T2, Neuronal acetylcholine receptor; alpha4/beta2; test: Inhibitory concentration against Nicotinic acetylcholine receptor alpha4-beta2; Range is 0.3-1.5 nM; type: protein-complex assay
[40] = target: T3, Neuronal acetylcholine receptor; alpha3/beta2; test: Inhibitory concentration against Nicotinic acetylcholine receptor alpha3-beta2; Range is 0.3-1.5 nM; type: protein-complex assay

## c1ccc(-c2cnc3c(c2)CC2(CN4CCC2CC4)O3)cc1 (stereo not given)
[1]
  EC50: > 100 µM
[2]
  EC50: > 100 µM
[3]
  Rmax: 85%
[4]
  EC50: > 100 µM
[5]
  EC50: > 100 µM
[6]
  EC50: > 100 µM

## C#Cc1cncc([C@@H]2CCCN2C)c1 [ALTINICLINE]
[7]
  EC50: > 10 µM
[8]
  Rmax: 26%
[1]
  EC50: 3.2 µM
[2]
  EC50: 0.32 µM
[9]
  Rmax: 49%
[10]
  Rmax: 52%
[4]
  EC50: 3.2 µM
[5]
  EC50: 10 µM
[11]
  Rmax: 49%
[6]
  EC50: 2 µM

## C[N+]1(C)CCN(c2ccccc2)CC1 [DIMETHYLPHENYLPIPERAZINIUM]
[12]
  EC50: 31 µM
[13]
  EC50: 46 µM
[8]
  Rmax: 19%
[9]
  Rmax: 58%
[10]
  Rmax: 101%
[3]
  Rmax: 54%
[14]
  Rmax: 107%
[15]
  EC50: 56 µM
[16]
  Rmax: 124%
[17]
  EC50: 18 µM
[18]
  Rmax: 100%
[11]
  Rmax: 90%
[19]
  EC50: 23 µM
[20]
  EC50: 19 µM

## Cc1cc([C@@H]2CCN2C)on1
[21]
  Rmax: 55%
[22]
  Rmax: 119%
[23]
  Rmax: 50%
[24]
  Rmax: 50%

## CO[C@@H]1CC=C2CCN3CCC4=C(CC(=O)OC4)[C@@]23C1
[25]
  Concentration: 0.11 µM
[26]
  Concentration: 0.01 µM
[27]
  IC50: 14 µM
[28]
  IC50: 3.6 µM
[29]
  Concentration: 2.7 µM
[30]
  Concentration: 20 µM
[31]
  IC50: 98 µM
[32]
  IC50: 43 µM and 240 µM

## CC[C@H](C)[C@H](NC(=O)[C@H](CCC(N)=O)NC(=O)[C@@H]1CCCN1C(=O)[C@H](CC(N)=O)NC(=O)[C@H](Cc1cnc[nH]1)NC(=O)[C@@H](NC(=O)[C@@H](NC(=O)[C@H](CS)NC(=O)[C@@H](NC(=O)[C@@H]1CCCN1C(=O)[C@H](CC(N)=O)NC(=O)[C@H](CO)NC(=O)[C@H](CS)NC(=O)[C@H](CS)NC(=O)[C@@H]1CCCN1C(=O)[C@@H](N)CC(=O)O)C(C)C)[C@@H](C)O)C(C)C)C(=O)N[C@@H](CS)C(N)=O (H-DPCCSNPVCTVHNPQIC-NH2)
[33]
  IC50: 0.001 µM
[34]
  IC50: 0.001 µM

## C[C@H](NC(=O)[C@H](Cc1ccccc1)NC(=O)[C@H](CS)NC(=O)[C@@H]1CCCN1C(=O)[C@@H]1CCCN1C(=O)[C@H](Cc1ccc(O)cc1)NC(=O)[C@H](CO)NC(=O)[C@H](CS)NC(=O)[C@H](CS)NC(=O)CN)C(=O)N[C@H](C(=O)N[C@@H](CC(N)=O)C(=O)N1CCC[C@H]1C(=O)N[C@@H](CC(=O)O)C(=O)N[C@H](C=O)CS)[C@@H](C)O
[35]
  IC50: 0.00075 µM
[36]
  IC50: 0.00075 µM
[37]
  IC50: 0.00075 µM
[38]
  IC50: 0.00075 µM
[39]
  IC50: 0.00075 µM
[40]
  IC50: 0.00075 µM
